Laboratory results: patent US20230338349A1, “LOW DOSE REGIMEN AND FORMULATION OF A 5-METHYL-1,2,4-OXADIAZOL-3-YL COMPOUND” (Eli Lilly and Company, priority 2020, published 2023)
Read-outs that look alike come from different tables or passages of the source.

Assay: Single ascending dose study in healthy subjects, pharmacokinetics of compound of Formula I
Assay type: in vivo, human
Conditions: for concentration at 0.5 h / concentration at 1 h / concentration at 1.5 h / concentration at 2 h / concentration at 3 h / concentration at 4 h / concentration at 5 h / concentration at 6 h / concentration at 8 h / concentration at 12 h / concentration at 24 h / concentration at 48 h / Tmax / half-life / Cmax / CL renal / Vd/F: human, plasma; for concentration at 0.5 h / concentration at 1 h / concentration at 1.5 h / concentration at 2 h / concentration at 3 h / concentration at 4 h / concentration at 5 h / concentration at 6 h / concentration at 8 h / concentration at 12 h / concentration at 24 h / concentration at 48 h: mean; for Vd/F: read-out: Vz/F (apparent volume of distribution after oral administration)
Experimental: A Phase 1, single-center, subject- and investigator-blind, single-ascending dose, placebo-controlled, crossover, randomized study is performed to evaluate safety, tolerability, and pharmacokinetics (PK) of the compound of Formula I in healthy subjects. The study is conducted in 2 alternating cohorts (cohorts 1 and 2) in up to 3 study periods across 6 dose levels. Subjects are randomized to 1 of 3 treatment sequences in each cohort, with each sequence including 2 doses of compound of Formula I and 1 placebo dose over the 3 study periods in a complete crossover manner.
After an overnight fast of at least 8 hours, oral capsules are administered with approximately 240 mL of room-temperature water in the morning of each dosing day in a sitting position. Doses of 0.15 mg to 2 mg are administered as an oral solution of compound of Formula I via an oral dosing syringe with water similar to oral capsule dosing.
The capsules containing the compound of Formula I are prepared extemporaneously. Oral doses of 0.15 mg to 2 mg of the compound of Formula I are prepared extemporaneously as drug in solution. For any specific cohort/dosing period, the total number of capsules administered is the same for all subjects, regardless of whether assigned to placebo or the compound of Formula I. However, the number of capsules may vary between dosing periods and cohorts. This is similarly the case for extemporaneously prepared oral dosing solutions to maintain the blind. […] A matching volume of oral solution vehicle without compound of Formula I is used as placebo for the doses of 0.15 mg to 2 mg.
Venous blood samples of approximately 3 mL each are collected to determine the plasma concentrations of compound of Formula I. Concentrations of compound of Formula I are assayed using a validated liquid chromatography with tandem mass spectrometry method. PK parameter estimates for compound of Formula I are calculated using standard noncompartmental methods of analysis. Plasma concentrations of compound of Formula I are summarized by administered dose of compound of Formula I and the approximate time of PK blood sample collection. Following the procedure essentially as described above, PK data for a single ascending dose of the compound of Formula I in healthy subjects are set forth in Table 3 and Table 4.

[1] = single oral dose 0.6 mg, geometric mean (% CV)
[2] = single oral dose 2 mg, geometric mean (% CV)
[3] = single oral dose 5 mg, geometric mean (% CV)
[4] = single oral dose 10 mg, geometric mean (% CV)
[5] = single oral dose 16 mg, geometric mean (% CV)

CC(=O)Nc1nc(F)c(CN2CC[C@H](OCc3noc(C)n3)C[C@@H]2C)s1 [compound of Formula I, N-[4-fluoro-5-[[(2S,4S)-2-methyl-4-[(5-methyl-1,2,4-oxadiazol-3-yl)methoxy]-1-piperidyl]methyl]thiazol-2-yl]acetamide]
AUC(0-∞) dose proportionality (0.6-mg to 16-mg dose range): increase approximately dose-proportionally | Cmax dose proportionality (0.6-mg to 16-mg dose range): increase approximately dose-proportionally | concentration at 0.5 h (single oral dose 0.15 mg): 0.271 ng/mL | concentration at 1 h (single oral dose 0.15 mg): 0.278 ng/mL | concentration at 1.5 h (single oral dose 0.15 mg): 0.246 ng/mL | concentration at 2 h (single oral dose 0.15 mg): 0.179 ng/mL | concentration at 3 h (single oral dose 0.15 mg): 0.161 ng/mL | concentration at 0.5 h (single oral dose 0.6 mg): 6.15 ng/mL | concentration at 1 h (single oral dose 0.6 mg): 6.25 ng/mL | concentration at 1.5 h (single oral dose 0.6 mg): 5.21 ng/mL | concentration at 2 h (single oral dose 0.6 mg): 4.84 ng/mL | concentration at 3 h (single oral dose 0.6 mg): 3.96 ng/mL | concentration at 4 h (single oral dose 0.6 mg): 3.6 ng/mL | concentration at 5 h (single oral dose 0.6 mg): 3.02 ng/mL | concentration at 6 h (single oral dose 0.6 mg): 2.35 ng/mL | concentration at 8 h (single oral dose 0.6 mg): 2.1 ng/mL | concentration at 12 h (single oral dose 0.6 mg): 1.09 ng/mL | concentration at 24 h (single oral dose 0.6 mg): 0.307 ng/mL | concentration at 0.5 h (single oral dose 2 mg): 16.2 ng/mL | concentration at 1 h (single oral dose 2 mg): 21.8 ng/mL | concentration at 1.5 h (single oral dose 2 mg): 19.5 ng/mL | concentration at 2 h (single oral dose 2 mg): 18.6 ng/mL | concentration at 3 h (single oral dose 2 mg): 15.3 ng/mL | concentration at 4 h (single oral dose 2 mg): 12.6 ng/mL | concentration at 5 h (single oral dose 2 mg): 10.5 ng/mL | concentration at 6 h (single oral dose 2 mg): 8.75 ng/mL | concentration at 8 h (single oral dose 2 mg): 7.09 ng/mL | concentration at 12 h (single oral dose 2 mg): 4.24 ng/mL | concentration at 24 h (single oral dose 2 mg): 1.34 ng/mL | concentration at 0.5 h (single oral dose 5 mg): 14.6 ng/mL | concentration at 1 h (single oral dose 5 mg): 58.9 ng/mL | concentration at 1.5 h (single oral dose 5 mg): 55.3 ng/mL | concentration at 2 h (single oral dose 5 mg): 50.3 ng/mL | concentration at 3 h (single oral dose 5 mg): 43.1 ng/mL | concentration at 4 h (single oral dose 5 mg): 36.5 ng/mL | concentration at 5 h (single oral dose 5 mg): 29.5 ng/mL | concentration at 6 h (single oral dose 5 mg): 24.8 ng/mL | concentration at 8 h (single oral dose 5 mg): 18.4 ng/mL | concentration at 12 h (single oral dose 5 mg): 9.74 ng/mL | concentration at 24 h (single oral dose 5 mg): 2.76 ng/mL | concentration at 48 h (single oral dose 5 mg): 0.634 ng/mL | concentration at 0.5 h (single oral dose 10 mg): 28.8 ng/mL | concentration at 1 h (single oral dose 10 mg): 122 ng/mL | concentration at 1.5 h (single oral dose 10 mg): 127 ng/mL | concentration at 2 h (single oral dose 10 mg): 125 ng/mL | concentration at 3 h (single oral dose 10 mg): 106 ng/mL | concentration at 4 h (single oral dose 10 mg): 100 ng/mL | concentration at 5 h (single oral dose 10 mg): 81.7 ng/mL | concentration at 6 h (single oral dose 10 mg): 72.3 ng/mL | concentration at 8 h (single oral dose 10 mg): 55.1 ng/mL | concentration at 12 h (single oral dose 10 mg): 32.7 ng/mL | concentration at 24 h (single oral dose 10 mg): 11 ng/mL | concentration at 48 h (single oral dose 10 mg): 2.28 ng/mL | concentration at 0.5 h (single oral dose 16 mg): 59.7 ng/mL | concentration at 1 h (single oral dose 16 mg): 150 ng/mL | concentration at 1.5 h (single oral dose 16 mg): 183 ng/mL | concentration at 2 h (single oral dose 16 mg): 187 ng/mL | concentration at 3 h (single oral dose 16 mg): 153 ng/mL | concentration at 4 h (single oral dose 16 mg): 127 ng/mL | concentration at 5 h (single oral dose 16 mg): 100 ng/mL | concentration at 6 h (single oral dose 16 mg): 88 ng/mL | concentration at 8 h (single oral dose 16 mg): 63 ng/mL | concentration at 12 h (single oral dose 16 mg): 32.2 ng/mL | concentration at 24 h (single oral dose 16 mg): 6.83 ng/mL | concentration at 48 h (single oral dose 16 mg): 0.828 ng/mL | Tmax (oral, summary over the single ascending doses, read-out: median tmax): ~1 h | half-life (oral, summary over the single ascending doses, read-out: t1/2 (converted)): ~6 h | Cmax (single oral dose 0.15 mg, geometric mean (% CV)): 0.318 ng/mL | Tmax (single oral dose 0.15 mg, median, read-out: tmax): 1.02 h | Cmax [1]: 6.61 ng/mL | CL renal (single oral dose 0.6 mg, geometric mean (% CV), read-out: CLr (renal clearance) (converted)): 19.5 mL/min | Vd/F [1]: 120 L | half-life (single oral dose 0.6 mg, geometric mean, read-out: t1/2 (terminal half-life) (converted)): 6.08 h | Tmax (single oral dose 0.6 mg, median, read-out: tmax): 1 h | Cmax [2]: 20.9 ng/mL | CL renal (single oral dose 2 mg, geometric mean (% CV), read-out: CLr (renal clearance) (converted)): 20.8 mL/min | Vd/F [2]: 119 L | half-life (single oral dose 2 mg, geometric mean, read-out: t1/2 (terminal half-life) (converted)): 5.48 h | Tmax (single oral dose 2 mg, median, read-out: tmax): 1.25 h | Cmax [3]: 59.1 ng/mL | CL renal (single oral dose 5 mg, geometric mean (% CV), read-out: CLr (renal clearance) (converted)): 19.7 mL/min | Vd/F [3]: 114 L | half-life (single oral dose 5 mg, geometric mean, read-out: t1/2 (terminal half-life) (converted)): 6.23 h | Tmax (single oral dose 5 mg, median, read-out: tmax): 1.02 h | Cmax [4]: 134 ng/mL | CL renal (single oral dose 10 mg, geometric mean (% CV), read-out: CLr (renal clearance) (converted)): 20.3 mL/min | Vd/F [4]: 104 L | half-life (single oral dose 10 mg, geometric mean, read-out: t1/2 (terminal half-life) (converted)): 8.82 h | Tmax (single oral dose 10 mg, median, read-out: tmax): 1.5 h | Cmax [5]: 199 ng/mL | CL renal (single oral dose 16 mg, geometric mean (% CV), N = 3, read-out: CLr (renal clearance) (converted)): 16 mL/min | Vd/F [5]: 102 L | half-life (single oral dose 16 mg, geometric mean, read-out: t1/2 (terminal half-life) (converted)): 5.92 h | Tmax (single oral dose 16 mg, median, read-out: tmax): 1.98 h | Ae0-24 (amount excreted in urine up to 24 hours postdose) (single oral dose 0.15 mg, geometric mean, N=5): 0.003 mg | AUC(0-∞) [1]: 44.0 (33) ngxh/mL | Ae0-24 (amount excreted in urine up to 24 hours postdose) [1]: 0.048 (53%) mg | CL/F (apparent clearance calculated after oral administration) [1]: 13.6 (33) L/h | AUC(0-∞) [2]: 133 (88) ngxh/mL | Ae0-24 (amount excreted in urine up to 24 hours postdose) [2]: 0.155 (57%) mg | CL/F (apparent clearance calculated after oral administration) [2]: 15.1 (88) L/h | AUC(0-∞) [3]: 396 (39) ngxh/mL | Ae0-24 (amount excreted in urine up to 24 hours postdose) [3]: 0.436 (57%) mg | CL/F (apparent clearance calculated after oral administration) [3]: 12.6 (39) L/h | AUC(0-∞) [4]: 1220 (28) ngxh/mL | Ae0-24 (amount excreted in urine up to 24 hours postdose) [4]: 1.3 (30%) mg | CL/F (apparent clearance calculated after oral administration) [4]: 8.20 (28) L/h | AUC(0-∞) [5]: 1340 (19) ngxh/mL | Ae0-24 (amount excreted in urine up to 24 hours postdose) [5]: 1.14 (36%) mg | CL/F (apparent clearance calculated after oral administration) [5]: 11.9 (19) L/h
